This note sets out measurements from patent US8822449B2, “Substituted aminoindanes and analogs thereof, and the pharmaceutical use thereof” (Sanofi, priority 2008, dated 2014).

For this test, the target named is T1, sodium-proton exchanger of subtype 3 (NHE3) (Homo sapiens, UniProt P48764).
T1 construct: expressed in transfected cells
T1 sequence (P48764 26-834): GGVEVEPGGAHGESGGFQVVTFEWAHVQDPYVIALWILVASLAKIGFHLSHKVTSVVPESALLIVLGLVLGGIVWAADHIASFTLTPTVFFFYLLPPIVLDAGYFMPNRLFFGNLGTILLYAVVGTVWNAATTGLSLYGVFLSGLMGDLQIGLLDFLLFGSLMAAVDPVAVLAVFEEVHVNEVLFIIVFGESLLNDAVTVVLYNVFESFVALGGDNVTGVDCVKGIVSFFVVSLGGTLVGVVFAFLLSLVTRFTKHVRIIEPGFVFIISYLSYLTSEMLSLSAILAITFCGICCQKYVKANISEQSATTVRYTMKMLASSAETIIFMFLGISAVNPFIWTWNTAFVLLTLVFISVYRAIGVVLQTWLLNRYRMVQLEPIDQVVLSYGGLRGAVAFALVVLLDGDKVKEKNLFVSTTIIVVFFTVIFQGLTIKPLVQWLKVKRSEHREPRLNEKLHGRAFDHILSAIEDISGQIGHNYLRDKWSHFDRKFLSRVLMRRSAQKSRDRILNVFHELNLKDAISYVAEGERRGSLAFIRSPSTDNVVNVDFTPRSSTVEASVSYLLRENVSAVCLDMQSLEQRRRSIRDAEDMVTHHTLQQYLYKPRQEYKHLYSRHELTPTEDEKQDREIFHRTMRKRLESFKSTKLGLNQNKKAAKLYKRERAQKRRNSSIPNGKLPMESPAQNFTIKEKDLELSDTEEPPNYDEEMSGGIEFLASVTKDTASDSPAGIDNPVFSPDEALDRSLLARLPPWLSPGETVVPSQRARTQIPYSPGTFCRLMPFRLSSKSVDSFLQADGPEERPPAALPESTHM
Nature of the test: Recovery of intracellular pH (pHi) after acidification in LAP1 cells stably expressing NHE3 (BCECF fluorescence, FLIPR). Format: cell-based. As to conditions: LAP1 cells stably expressing NHE3; pH recovery after acidification; range 1 is % inhibition at 10 μM; read-out: Activity range (inhibitory effect on NHE3).

In the case of `CS(=O)(=O)Nc1ccc(C(=O)O[C@H]2c3ccccc3C[C@@H]2N2CCCC2)c(Cl)c1` [Example 394, 2-chloro-4-methanesulfonylaminobenzoic acid (1S,2S)-2-pyrrolidin-1-ylindan-1-yl ester], the IC50 fell in the range of 1000 to 10000 nM.

With `NS(=O)(=O)c1ccc(O[C@H]2c3cc(Cl)cc(Cl)c3C[C@@H]2N2CC[C@@H](O)C2)c(F)c1` [Example 741, 4-[trans-(1S,2S)-4,6-Dichloro-2-((R)-3-hydroxy-pyrrolidin-1-yl)-indan-1-yloxy]-3-fluoro-benzenesulfonamide], the IC50 was below 1000 nM.

Regarding `O=c1oc2ccc(O[C@@H]3c4ccccc4C[C@H]3N3C[C@H]4CNC[C@H]4C3)cc2s1` (racemic) [Example 577, 5-[rac-trans-(1,2)-2-(hexahydropyrrolo[3,4-c]pyrrol-2-yl)indan-1-yloxy]benzo[1,3]oxathiol-2-one], the IC50 lay in the range of 1000 to 10000 nM.

For the compound `N[C@@H]1CCCN([C@H]2Cc3c(Cl)cc(Cl)cc3[C@@H]2Oc2ccc(F)c3cccnc23)C1` [Example 27, (R)-1-[(1S,2S)-4,6-dichloro-1-(5-fluoroquinolin-8-yloxy)indan-2-yl]piperidin-3-ylamine], the IC50 is below 1000 nM.

Turning to `N[C@@H]1CCCN([C@H]2CCc3ccccc3[C@@H]2Oc2ccc(N3C(=O)CCC3=O)cc2)C1` (racemic) [Example 326, 1-{4-[rac-trans-(1,2)-2-((R)-3-aminopiperidin-1-yl)-1,2,3,4-tetrahydronaphthalen-1-yloxy]phenyl}pyrrolidine-2,5-dione], the IC50 was in the range of 1000 to 10000 nM.

As for `N[C@@H]1CCCN([C@H]2CCc3ccccc3[C@@H]2Oc2cccc(Cl)c2)C1` (racemic) [Example 55, (R)-1-[rac-trans-(1,2)-1-(3-chlorophenoxy)-1,2,3,4-tetrahydronaphthalen-2-yl]piperidin-3-ylamine], the inhibition at 10 µM lay in the range of 20 to 50%.

As to `NS(=O)(=O)c1ccc(O[C@H]2c3cc(Cl)cc(Cl)c3C[C@@H]2N2CCCC2)cc1` [Example 457, 4-((1S,2S)-4,6-dichloro-2-pyrrolidin-1-ylindan-1-yloxy)benzenesulfonamide], the IC50 was below 1000 nM.

On to `COc1ccc(C)cc1O[C@@H]1c2ccccc2C[C@H]1N1CCC(CN)CC1` (racemic) [Example 606, C-{1-[rac-trans-(1,2)-1-(2-methoxy-5-methylphenoxy)indan-2-yl]piperidin-4-yl}methylamine], for which the IC50 was 1000 to 10000 nM.

Take `CN(C1CCCNC1)[C@@H]1Cc2ccccc2[C@H]1Oc1ccc(S(N)(=O)=O)c(Cl)c1Cl` (mixture of isomers) [Example 360, 2,3-dichloro-4-[rac-trans-(1,2)-2-(methylpiperidin-3-ylamino)indan-1-yloxy]benzenesulfonamide]: the IC50 lay within 1000 to 10000 nM.

Take `COc1cccc(F)c1O[C@@H]1c2cc(Cl)cc(Cl)c2C[C@H]1N1CCC[C@@H](N)C1` [Example 94, (R)-1-[trans-(1R,2R)-4,6-dichloro-1-(2-fluoro-6-methoxyphenoxy)indan-2-yl]piperidin-3-ylamine]: the inhibition at 10 µM was 20 to 50%.

As to `CS(=O)(=O)c1ccc(O[C@H]2c3cc(Cl)cc(Cl)c3C[C@@H]2N2CCCNCC2)cc1` (racemic) [Example 277, 1-[rac-trans-(1,2)-4,6-dichloro-1-(4-methanesulfonylphenoxy)indan-2-yl]-[1,4]diazepane], the IC50 was below 1000 nM.

`N#Cc1ccc(O[C@@H]2c3ccccc3C[C@H]2N2CCC[C@@H](N)C2)cc1Cl` (racemic) [Example 521, 4-[rac-trans-(1,2)-2-((R)-3-aminopiperidin-1-yl)indan-1-yloxy]-2-chlorobenzonitrile]: the IC50 fell in the range of 1000 to 10000 nM.

As to `CN1CCN(c2cc(O[C@H]3c4cc(Cl)cc(Cl)c4C[C@@H]3N3CC[C@@H](O)C3)ccc2Cl)C1=O` [Example 311, 1-{2-chloro-5-[(1S,2S)-4,6-dichloro-2-((R)-3-hydroxypyrrolidin-1-yl)indan-1-yloxy]phenyl}-3-methylimidazolidin-2-one], the inhibition at 10 µM was 20 to 50%.

With `NCC1CCN([C@@H]2Cc3ccccc3[C@H]2Oc2ccc(C(N)=O)cc2)CC1` (racemic) [Example 548, 4-[rac-trans-(1,2)-2-(4-aminomethylpiperidin-1-yl)indan-1-yloxy]benzamide], the IC50 is 1000 to 10000 nM.

With `Cc1c(O[C@H]2c3cc(Cl)cc(F)c3C[C@@H]2N2CC[C@@H](O)C2)ccc(-n2c(C)nnc2C)c1C` [Example 141, (R)-1-{trans-(1S,2S)-6-chloro-1-[4-(3,5-dimethyl-[1,2,4]triazol-4-yl)-2,3-dimethylphenoxy]-4-fluoroindan-2-yl}pyrrolidin-3-ol], the IC50 was below 1000 nM.

`Cc1nnc(C)n1-c1ccc(O[C@H]2c3ccccc3C[C@@H]2N2CCC[C@@H](N)C2)cc1` [Example 121, (R)-1-{trans-(1S,2S)-1-[4-(3,5-dimethyl-[1,2,4]triazol-4-yl)phenoxy]indan-2-yl}piperidin-3-ylamine]: the IC50 fell in the range of 1000 to 10000 nM.

In the case of `CN(C)S(=O)(=O)c1ccc(OC2c3ccccc3CC2N2CCC[C@@H](N)C2)c(Cl)c1Cl` (mixture of isomers) [Example 520, 4-[rac-trans-(1,2)-2-((R)-3-aminopiperidin-1-yl)indan-1-yloxy]-2,3-dichloro-N,N-dimethylbenzenesulfonamide], the IC50 was below 1000 nM.

Turning to `CS(=O)(=O)c1ccc(O[C@H]2c3cc(Cl)cc(Cl)c3C[C@@H]2N2CCC[C@H]2CO)cc1` [Example 228, {(S)-1-[trans-(1S,2S)-4,6-dichloro-1-(4-methanesulfonylphenoxy)indan-2-yl]pyrrolidin-2-yl}methanol], the IC50 was 1000 to 10000 nM.

For `N[C@@H]1CCCN([C@H]2CCc3ccccc3[C@@H]2Oc2ccccc2N2CCOCC2)C1` (racemic) [Example 48, (R)-1-[rac-trans-(1,2)-1-(2-morpholin-4-ylphenoxy)-1,2,3,4-tetrahydronaphthalen-2-yl]piperidin-3-ylamine], the inhibition at 10 µM is 20 to 50%.

With `O=C1OCCN1c1ccc(O[C@H]2c3cc(Cl)cc(Cl)c3C[C@@H]2N2CC[C@@H](O)C2)cc1` [Example 429, 3-{4-[trans-(1S,2S)-4,6-dichloro-2-((R)-3-hydroxypyrrolidin-1-yl)indan-1-yloxy]phenyl}oxazolidin-2-one], the IC50 is 1000 to 10000 nM.

For the compound `CN(C)CCCN(C)[C@H]1Cc2c(Cl)cc(Cl)cc2[C@@H]1Oc1ccc(S(C)(=O)=O)cc1` [Example 672, N-[trans-(1S,2S)-4,6-dichloro-1-(4-methanesulfonylphenoxy)indan-2-yl]-N,N′,N′-trimethylpropane-1,3-diamine], the IC50 is below 1000 nM.

On to `N#Cc1ccc(-c2ccc(O[C@H]3c4ccccc4CC[C@@H]3N3CCC[C@@H](N)C3)cc2)cc1` (racemic) [Example 517, 4′-[rac-trans-(1,2)-2-((R)-3-aminopiperidin-1-yl)-1,2,3,4-tetrahydronaphthalen-1-yloxy]-biphenyl-4-carbonitrile], for which the inhibition at 10 µM was 20 to 50%.

For `CCN(CC)[C@@H]1Cc2ccccc2[C@H]1Oc1ccc2c(c1)C(C)C(=O)N2C` (mixture of isomers) [Example 568, 5-(rac-trans-(1,2)-2-diethylaminoindan-1-yloxy)-1,3-dimethyl-1,3-dihydroindol-2-one], the IC50 is 1000 to 10000 nM.

Turning to `O=C1OCCN1c1ccc(Cl)c(O[C@H]2c3cc(Cl)cc(Cl)c3C[C@@H]2N2CC[C@@H](O)C2)c1` [Example 434, 3-{4-chloro-3-[(1S,2S)-4,6-dichloro-2-((R)-3-hydroxypyrrolidin-1-yl)indan-1-yloxy]phenyl}oxazolidin-2-one], the IC50 was below 1000 nM.

For the compound `CS(=O)(=O)c1ccccc1O[C@H]1c2ccccc2CC[C@@H]1N1CCOCC1` (racemic) [Example 506, 4-[rac-trans-(1,2)-1-(2-methanesulfonylphenoxy)-1,2,3,4-tetrahydronaphthalen-2-yl]morpholine], the inhibition at 10 µM was 20 to 50%.

Turning to `NC(=O)c1cccc(O[C@@H]2c3ccccc3C[C@H]2N2C[C@H]3CNC[C@H]3C2)c1` (racemic) [Example 410, 3-[rac-trans-(1,2)-2-(hexahydropyrrolo[3,4-c]pyrrol-2-yl)indan-1-yloxy]benzamide], the IC50 lay in the range of 1000 to 10000 nM.

As for `NC(=O)c1cccc(O[C@H]2c3ccccc3CC[C@@H]2N2CCC[C@H](N)C2)c1` (racemic) [Example 412, 3-[rac-trans-(1,2)-2-((S)-3-aminopiperidin-1-yl)-1,2,3,4-tetrahydronaphthalen-1-yloxy]benzamide], the inhibition at 10 µM is 20 to 50%.

`CC(=O)Nc1cccc(O[C@@H]2c3ccccc3C[C@H]2N2CCSCC2)c1` (racemic) [Example 642, N-[3-(rac-trans-(1,2)-2-thiomorpholin-4-ylindan-1-yloxy)phenyl]acetamide]: the IC50 is 1000 to 10000 nM.

As to `N#Cc1c(F)cccc1O[C@H]1c2ccccc2CC[C@@H]1N1CCC[C@H](N)C1` (racemic) [Example 372, 2-[rac-trans-(1,2)-2-((S)-3-aminopiperidin-1-yl)-1,2,3,4-tetrahydronaphthalen-1-yloxy]-6-fluorobenzonitrile], the inhibition at 10 µM lay within 20 to 50%.
